The values below come from patent US11540516B2, “M-diamide compound and preparation method therefor and use thereof” (priority 2018, dated 2023).

Read-outs that look alike come from different tables or passages of the source.

What all share (type): in vivo
The subject of series [1] is Spodoptera litura. The series is described as follows: Indoor bioactivity test against Spodoptera litura (leaf dip). The settings on record: foliar. The method, then: (§1) The leaf dip method was used to assay the insecticidal activity of compounds to strains of Spodoptera litura. Dip the leaf disc into the solution prepared with compound of this invention for 10 seconds, and dry them in a cool environment. Then place them in Petri dish with 4 discs per dish. Put the filter paper into the Petri dish to moisturize it. Put 10 of Spodoptera litura into each dish, which was repeated by 3 times. The dishes were placed in an illumination incubator and incubated at 25° C. with 14 hL: 10 hD illumination. The number of Spodoptera litura death was investigated on the 1st, 2nd and 3rd day after treatment, and the mortality was calculated.
According to the above method, compound 4, 23 and KC1 were selected and parallelly tested against Spodoptera litura to compare the insecticidal activity.

Series [2] concerns Chilo suppressalis. The series can be described thus: Indoor bioactivity test against Chilo suppressalis (rice stem dip). The method, then: The leaf dip method was used to assay the insecticidal activity of compounds to strains of Chilo suppressalis. The rice was cultivated in a plastic pot with a diameter of 9 cm and a height of 10 cm. When the rice grew about 25 cm, the aerial part of robust and consistent rice seedlings were selectively cut. Their leaves were removed and their stems of about 8 cm were kept for use. Pour the solution prepared with compound of this invention into the Petri dish (about 40 mL) and immerse the rice stems into the solution for 10 seconds. Take rice stems out and dry them in a cool environment. Put a wet cotton ball at the bottom of finger-like glass tube and 5 rice stems in each tube. Put 10 of 3rd-instar larvae of Chilo suppressa into each tube, which was repeated by 3 times. Seal the tubes with black cotton cloth and tighten them with rubber band. The tubes were placed in a illumination incubator at 28° C. and incubated in the dark. The number of alive Chilo suppressalis and the total number were investigated 3 days after treatment. The mortality was calculated.
According to the above method, Compound 23 and KC2 were selected and parallelly tested against Chilo suppressalis.

The subject of series [3] is Spodoptera exigua Hiibner. The series is described as follows: Indoor bioactivity test against Spodoptera exigua Hiibner (leaf dip). The note with it: foliar, 3rd day after treatment. The method, then:
as §1, with “of Spodoptera exigua Hiibner. Dip the” for “of Spodoptera litura. Dip the”, “of Spodoptera exigua Hiibners into each” for “of Spodoptera litura into each”, “of Spodoptera exigua Hiibner death was” for “of Spodoptera litura death was”

Series [4] deals with Mythimna separata. The series can be described thus: Indoor bioactivity test against Mythimna separata (leaf dip). The settings on record: foliar, 3rd day after treatment. The source says:
The leaf dip method was used to assay the insecticidal activity of compounds to strains of Mythimna sepatata. Cut above ground part of fresh maize seedlings, about 10 cm. Dip the maize seedlings into the solution prepared with compound of this invention for 10 seconds and dry them in a cool environment. Then cut the dry maize seedlings into 3˜5 cm leaf sections and put 3 leaf sections into each petri dish. Put ten of 4th-instar larvae of Mythimna separatas into each dish, which was repeated by 3 times. Then the dishes were placed in an illumination incubator and incubated at 25° C. in the dark. Symptoms were investigated on the 1st, 2nd and 3rd day after treatment, and the mortality was calculated.

Series [5] relates to soybean thrips. The series can be described thus: Biological activity on soybean thrips in greenhouse (foliar spray). The method, then:
Test system: naturally occurring thrips population on soybeans planted in greenhouse. The basic number of active thripses were more than 100 thripses per trifoliate leaf. Under the same conditions, the sensitivity of the thrips population to Spinetoram (dose: 50 mg/L) is 96.55% mortality on the 6th day after treatment.
The size of the plot: 10 m^2, no repetition.
Test formulation: each compound was made into 5% SL (compound 5%+emulsifier 5%+solvent to make up 100%).
(1) Spraying time: both adult and larva thripses were in the active period. The number of spray: 1 time.
(2) Standard for water usage: when dose was in mg/kg, the upper leaves were wet and water began to drop therefrom.
(3) Survey standard: count three single leaves as one leaf. Three leaves were randomly selected and investigated for the number of adult and larva thripses on them.
[…] 2 surveys were conducted.

The test system of series [6] is Plutella xylostella. The series is described as follows: Indoor bioactivity test against Plutella xylostella (leaf dip). The note with it: foliar; for mortality at 1 ppm / mortality at 0.4 ppm: 3rd day after treatment. The method, then: as §1, with “Plutella xylostella.” for “Spodoptera litura.”, “Plutella xylostella” for “Spodoptera litura”
According to the above method, compound 4 and KC1 were selected and parallelly tested against Plutella xylostella to compare their insecticidal activity.

[7] abbreviates: dose 50 ppm, 1 d, foliar spray, 5% SL.
Setting [8] is: dose 50 ppm, 6 d, foliar spray, 5% SL.
Setting [9] is: 24 h, read-out: Mortality (%) 1 d.
[10] abbreviates: 48 h, read-out: Mortality (%) 2 d.
Where [11] appears, read: 72 h, read-out: Mortality (%) 3 d.
[12] abbreviates: 3rd day after treatment, read-out: mortality of Chilo suppressalis.

For `O=C(Nc1c(I)cc(C(F)(C(F)(F)F)C(F)(F)F)cc1C(F)(F)F)c1cccc(N(CC2CC2)C(=O)c2ccc(Br)cc2)c1F` [Compound 47, N-(2-iodo-4-(perfluoropropan-2-yl)-6-(trifluoromethyl)phenyl)-3-(4-bromo-N-(cyclopropylmethyl)benzamido)-2-fluorobenzamide], in series [1] (0.4 ppm, 3rd day after treatment, read-out: mortality of Spodoptera litura), the mortality at 0.4 ppm is ≥ 90%. In series [2] (3rd day after treatment), the mortality at 10 ppm was ≥ 90%. For the same compound, the mortality at 1 ppm is 90% in series [3] and ≥ 90% in series [4].

On to Spinetoram [reference compound], for which the “sensitivity of the thrips population, mortality” value in series [5] (dose 50 mg/L, 6th day after treatment) stood at 96.55%. In addition, in series [5] (setting [7]), the “Mortality % 1 d” value is recorded as 93.94% and the “No. of thrips 1 d” value is 16. In series [5] (setting [8]), the “Mortality % 6 d” value turned out to be 96.55% and the “No. of thrips 6 d” value came out at 4.

Consider `CC(C1CC1)N(C(=O)c1ccc(Cl)cc1)c1cccc(C(=O)Nc2c(Br)cc(C(F)(C(F)(F)F)C(F)(F)F)cc2C(F)(F)F)c1F` (stereo not shown) [Compound 44, N-(2-bromo-4-(perfluoropropan-2-yl)-6-(trifluoromethyl)phenyl)-3-(4-chloro-N-(1-cyclopropylethyl)benzamido)-2-fluorobenzamide], for which, in series [4], the mortality at 1 ppm was ≥ 90%.

As for `CN(C(=O)c1ccccc1)c1cccc(C(=O)Nc2c(Br)cc(C(F)(C(F)(F)F)C(F)(F)F)cc2C(F)(F)F)c1F` [KC1 (broflanilide), broflanilide, reference compound], the mortality at 0.04 ppm in series [6] (setting [9]) came to 0%; in series [6] (setting [10]), 56.7%; in series [6] (setting [11]), 90%. The mortality at 0.4 ppm in series [1] (setting [9]), in series [1] (setting [10]) and in series [1] (setting [11]) was 0% in each case. Also, the figures for the mortality at 1 ppm in series [1] (setting [9]), in series [1] (setting [10]) and in series [1] (setting [11]) were 26.7%, 33.3% and 33.3%, respectively.

Regarding `CN(C(=O)c1ccc(C#N)cc1)c1cccc(C(=O)Nc2c(Br)cc(C(F)(C(F)(F)F)C(F)(F)F)cc2C(F)(F)F)c1F` [KC2, reference compound], the mortality at 0.4 ppm in series [2] (72 h, 0.4 ppm, 3d) amounted to 0%. The same compound returned a mortality at 1 ppm in series [2] (72 h, 1 ppm, 3d) of 53.3%. In series [2] (72 h, 2 ppm, 3d), this compound registered a mortality at 2 ppm of 86.7%. Also, in series [2] (72 h, 3d, read-out: Mortality (%, 3d) 5 ppm), the mortality at 5 ppm was found to be 93.3%.

As to `O=C(Nc1c(Br)cc(C(F)(C(F)(F)F)C(F)(F)F)cc1C(F)(F)F)c1cccc(N(C(=O)c2ccccc2)C(C2CC2)C2CC2)c1F` [Compound 22, N-(2-bromo-4-(perfluoropropan-2-yl)-6-(trifluoromethyl)phenyl)-3-(N-(dicyclopropylmethyl)benzamido)-2-fluorobenzamide], the mortality at 1 ppm in series [4] was ≥ 90%.

Consider `CC(C1CC1)N(C(=O)c1ccc(Br)cc1)c1cccc(C(=O)Nc2c(Br)cc(C(F)(C(F)(F)F)C(F)(F)F)cc2C(F)(F)F)c1F` (stereo not shown) [Compound 50, N-(2-bromo-4-(perfluoropropan-2-yl)-6-(trifluoromethyl)phenyl)-3-(4-bromo-N-(1-cyclopropylethyl)benzamido)-2-fluorobenzamide], for which the mortality at 10 ppm in series [2] (3rd day after treatment) is ≥ 90%.

In the case of `CC(C1CC1)N(C(=O)c1ccc(C(F)(F)F)cc1)c1cccc(C(=O)Nc2c(Br)cc(C(F)(C(F)(F)F)C(F)(F)F)cc2C(F)(F)F)c1F` (stereo not shown) [Compound 39, N-(2-bromo-4-(perfluoropropan-2-yl)-6-(trifluoromethyl)phenyl)-3-(N-(1-cyclopropylethyl)-4-(trifluoromethyl)benzamido)-2-fluorobenzamide], the mortality at 1 ppm in series [6] and in series [4] was ≥ 90% each time. Moreover, the mortality at 10 ppm in series [2] (3rd day after treatment) is ≥ 90%.

`CC(C1CC1)N(C(=O)c1ccc(F)cc1)c1cccc(C(=O)Nc2c(Br)cc(C(F)(C(F)(F)F)C(F)(F)F)cc2C(F)(F)F)c1F` (stereo not shown) [Compound 63, N-(2-bromo-4-(perfluoropropan-2-yl)-6-(trifluoromethyl)phenyl)-3-(N-(1-cyclopropylethyl)-4-fluorobenzamido)-2-fluorobenzamide]: the mortality at 1 ppm in series [6] is ≥ 90%.

For `CC(C1CC1)N(C(=O)c1ccc(C#N)cc1)c1cccc(C(=O)Nc2c(Br)cc(C(F)(C(F)(F)F)C(F)(F)F)cc2C(F)(F)F)c1F` (stereo not shown) [Compound 26, N-(2-bromo-4-(perfluoropropan-2-yl)-6-(trifluoromethyl)phenyl)-3-(4-cyano-N-(1-cyclopropylethyl)benzamido)-2-fluorobenzamide], the mortality at 0.4 ppm in series [6] is ≥ 90%. The mortality at 5 ppm in series [2] (setting [12]) is ≥ 90%. The mortality at 1 ppm in series [4] was ≥ 90%.

Regarding `O=C(Nc1c(I)cc(C(F)(C(F)(F)F)C(F)(F)F)cc1C(F)(F)F)c1cccc(N(CC2CC2)C(=O)c2ccc(I)cc2)c1F` [Compound 53, N-(2-iodo-4-(perfluoropropan-2-yl)-6-(trifluoromethyl)phenyl)-3-(N-(cyclopropylmethyl)-4-iodobenzamido)-2-fluorobenzamide], the mortality at 10 ppm in series [1] (3rd day after treatment), in series [2] (3rd day after treatment) and in series [3] (10 ppm) was ≥ 90% in each case.

As to `O=C(Nc1c(Br)cc(C(F)(C(F)(F)F)C(F)(F)F)cc1C(F)(F)F)c1cccc(N(CC2CC2)C(=O)c2ccc(I)cc2)c1F` [Compound 52, N-(2-bromo-4-(perfluoropropan-2-yl)-6-(trifluoromethyl)phenyl)-3-(N-(cyclopropylmethyl)-4-iodobenzamido)-2-fluorobenzamide], the mortality at 10 ppm in series [1] (3rd day after treatment) and in series [2] (3rd day after treatment) was ≥ 90% in each case. For the same compound, in series [4], the mortality at 1 ppm was ≥ 90%.

For the compound `CC(C1CC1)N(C(=O)c1ccccc1)c1cccc(C(=O)Nc2c(Br)cc(C(F)(C(F)(F)F)C(F)(F)F)cc2C(F)(F)F)c1F` (stereo not shown) [Compound 8, N-(2-bromo-4-(perfluoropropan-2-yl)-6-(trifluoromethyl)phenyl)-3-(N-(1-cyclopropylethyl)benzamido)-2-fluorobenzamide], the mortality at 0.4 ppm in series [6] was ≥ 90%. For the same compound, in series [4], the mortality at 1 ppm was ≥ 90%.

For `COC(c1cc(Br)c(NC(=O)c2cccc(N(CC3CC3)C(=O)c3ccc(C(F)(F)F)cc3)c2F)c(C(F)(F)F)c1)(C(F)(F)F)C(F)(F)F` [Compound 38, N-(2-bromo-4-(1,1,1,3,3,3-hexafluoro-2-methoxypropan-2-yl)-6-(trifluoromethyl)phenyl)-3-(N-(cyclopropylmethyl)-4-(trifluoromethyl)benzamido)-2-fluorobenzamide], in series [4], the mortality at 1 ppm was ≥ 90%.

`O=C(Nc1c(Br)cc(C(F)(C(F)(F)F)C(F)(F)F)cc1C(F)(F)F)c1cccc(N(CC2CC2)C(=O)c2ccc(Br)cc2)c1F` [Compound 46, N-(2-bromo-4-(perfluoropropan-2-yl)-6-(trifluoromethyl)phenyl)-3-(4-bromo-N-(cyclopropylmethyl)benzamido)-2-fluorobenzamide]: in series [2] (setting [12]), the mortality at 5 ppm was ≥ 90%. Also, in series [3], the mortality at 1 ppm was determined as 90%.

As a reminder, the mortality is the share of the test organisms that died.
